{
  "source": "patent US20120095100A1",
  "about": "“USE OF A COMBINATION OF D-ASPARTIC AND L-ASPARTIC ACIDS OR SALTS THEREOF FOR THE TREATMENT OF MALE INFERTILITY” (MERCK SERONO S.P.A., priority 2009, published 2012)",
  "key": {"[1]": {"tested_on": "spermatozoa in human seminal liquid", "experiment": "Number and quality of spermatozoa in human seminal liquid after oral sodium D-aspartate or sodium D-/L-aspartate mixtures", "assay_type": "in vivo", "conditions": "men 25-40 years, oral 3.12 g/day total, 30 days", "from_the_text": "Seminal liquid has been collected through masturbation after 3-5 abstinence days. The number of the spermatozoa and progressive quick motility thereof have been determined according to (World Health Organization) WHO guidelines using a Makler Chamber for the count (Sefi Medtstl Instrument, Haifa, Israel) and in the same place the progressive quick motility has been determined.\nIt is to be pointed out that this study has been carried out on selected subjects having a number of spermatozoa in seminal liquid from 15.000.000 to 20.000.000/ml, that is minimum threshold values within normal range. […] In this case therefore the action of D-aspartate stimulates their maturation to vital spermatozoa."}, "[2]": {"tested_on": "spermatozoa in rabbit seminal liquid", "experiment": "Effect of sodium D-aspartate and sodium D-/L-aspartate mixtures on number and motility of spermatozoa in rabbit seminal liquid", "assay_type": "in vivo", "conditions": "rabbits, 0.25 g/day total mixed with food, 20 days", "from_the_text": "The study has been carried out on two groups of rabbits (10 rabbits for each group) in order to test the effect of sodium D-aspartate and of the sodium D-aspartate in combination with a determined amount of sodium L-aspartate on the quality of seminal liquid, i.e. on number of spermatozoa/ml and on the progressive quick motility thereof.\nThe experiment involved the ingestion by a group of 10 male adult rabbits, 6 month old, of an amount of sodium D-aspartate corresponding to 0.250 g daily ([…] of body weight) over 20 days. Practically, sodium D-aspartate was mixed with food in such amount that the food daily ingested by the rabbit contained 0.250 g of sodium D-aspartate. In the same way, in a second experiment carried out on another group of 10 same age male adult rabbits, a mixture consisting of 0.2 g of sodium D-aspartate and 0,05 g of sodium L-aspartate (80% D-Asp: 20% L-Asp) was administered. Before the start of the experiment and at the end of drug ingestion lasting 20 days, from every rabbit a sperm sample obtained by stimulation using an artificial vagina has been collected and the total number of spermatozoa/ml of ejaculate and motility thereof have been determined.\nThe number of the spermatozoa and progressive quick motility are determined according to (World Health Organization) WHO guidelines using a Makler Chamber for the count (Sefi Medtstl Instrument, Haifa, Israel) and in the same place the progressive quick motility has been determined. The rabbit semen was 1:10 diluted in an iso-osmotic solution due to excessive concentration.\nThe study involved the administration of a mixture consisting of 0.125 g of sodium D-aspartate+0,125 g of sodium L-aspartate (D-Asp 50%: L-Asp 50%) to a group of 10 rabbits according to procedure of Example 2. […] In this case the production of the number of spermatozoa was increased by 25% and motility by 55% compared to controls showing that also in this case an improvement compared to D-aspartate alone was obtained but it was lower than mixture consisting of 80% D-aspartate and 20% L-aspartate."}, "[3]": {"tested_on": "LH (luteinizing hormone) in human serum", "conditions": "men 25-40 years, 30 days", "text": "(§3) The study involves the oral ingestion (after breakfast or main meal) by a group of 10 25-40 year old people of a daily dose consisting of 3.12 g of sodium D-aspartate (19,2 μmole of sodium D-aspartate; 0.27 μmol/kg of body weight for a 70 kg person) over 30 days. Another group of 10 25-40 year old people (after breakfast or main meal) ingested a daily dose of a mixture consisting of 2.49 g of sodium D-aspartate and 0.63 g of sodium L-aspartate (80% sodium D-aspartate and 20% sodium L-aspartate) for the same period.\n(§4) LH and testosterone hormonal assays have been carried out using specific commercial kits for clinical chemical use."}, "[4]": {"tested_on": "testosterone in human serum", "conditions": "men 25-40 years, oral 3.12 g/day total, 30 days", "text": "as §3, §4"}, "[5]": {"tested_on": "LH and testosterone values and spermatozoon number and motility", "conditions": "man, daily one or two 3 g doses, at least 30 days; cited from earlier work"}, "[6]": {"tested_on": "luteinizing hormone (LH), growth hormone, prolactin (PRL) and testosterone in blood", "conditions": "rat, orally administered; cited from earlier work"}, "[7]": {"tested_on": "LH (luteinizing hormone) in human serum", "experiment": "LH in human serum after oral D-aspartic/L-aspartic acid", "assay_type": "in vivo", "conditions": "men, L-aspartic acid alone", "from_the_text": "(§1) Like ingestion procedure, the D-aspartic and L-aspartic acid mixture preferably was dispersed in a half filled glass containing water or fresh or stored fruit juice (orange, apple, pear, etc.), then stirred and ingested.\n(§2) Before the start of the study and after 20 days of treatment in the morning from each subject blood has been collected and the concentration of LH (luteinizing hormone) and testosterone has been determined in serum obtained from said blood. Moreover, from every subject also the seminal liquid has been collected for which quick progressive motility together with total number spermatozoa/ml of sperm has been determined."}, "[8]": {"tested_on": "testosterone in human serum", "experiment": "Testosterone in human serum after oral D-aspartic/L-aspartic acid", "assay_type": "in vivo", "conditions": "men, L-aspartic acid alone", "from_the_text": "as §1, §2"}, "[9]": {"tested_on": "spermatozoa in rabbit seminal liquid", "experiment": "Effect of feed containing D-aspartic/L-aspartic acid on number and motility of spermatozoa in rabbit seminal liquid", "assay_type": "in vivo", "conditions": "rabbits, about 1.14 g/day total in feed, 20 days", "from_the_text": "The study has been carried out on two groups of rabbits. […] A same age second group of 10 rabbits representing a control group (or placebo) was fed eat for 20 days with same type food as above prepared, but without the addition of D-aspartic and L-aspartic acids mixture. The experiments have been carried out in a rabbit breeding farm (“Potenza Breeders' Association”, Potenza, Italy). Before the start and at the end of the experiment from each rabbit a sperm sample has been collected by stimulation with an artificial vagina (see paper: “G. Macchia et al., DL-aspartic acid administration improve semen quality in rabbit bucks, published on “Animal Reproduction Science, 118, 337-343, 2010) and the total number of spermatozoa/ml of ejaculate and motility thereof have been determined.\nThe number of the spermatozoa and progressive quick motility are determined according to (World Health Organization) WHO guidelines using a Makler Chamber for the count (Sefi Medtstl Instrument, Haifa, Israel) and in the same place the progressive quick motility has been determined.\nAlso this study has been carried out on two groups of same age and weight rabbits as used for previous study. […] Also in this case seminal liquid has been collected before and after the experiment and then examined for spermatozoon number and motility thereof.\nAlso this study carried out on rabbits has been carried out in the same way as previous ones. […] Also in this case total amount of D-Asp+L-Asp ingested daily by rabbits was about 1.140 g."}, "[10]": {"tested_on": "spermatozoa in human seminal liquid", "experiment": "Number and quick progressive motility of spermatozoa in human seminal liquid after oral D-aspartic/L-aspartic acid", "assay_type": "in vivo", "conditions": "men", "from_the_text": "as §1, §2\nThe seminal liquid has been collected by masturbation after 3-5 abstinence days. The number of the spermatozoa and progressive quick motility have been determined according to (World Health Organization) WHO guidelines using a Makler Chamber for the count (Sefi Medtstl Instrument, Haifa, Israel) and in the same place the progressive quick motility has been determined."}},
  "note": "“And” between values parts separate entries of the source, which are not always exact repeats. Equal values may be shown once. Read-outs that look alike come from different tables or passages of the source. Marks after values point to notes of the source that are not given here.",
  "data": [
    {"molecule": "N[C@H](CC(=O)[O-])C(=O)[O-].[Na+].[Na+]", "note": "[100% D-Aspartate, sodium D-aspartate]", "values": [
      {"measurement": "% increase of quick progressive spermatozoa vs before the treatment", "setting": "[1]", "value": "+28%"},
      {"measurement": "% increase of total spermatozoa vs before the treatment", "setting": "[1]", "value": "+27%"},
      {"measurement": "Immobile spermatozoa after ingestion (on base 100)", "setting": "[1]", "value": 30, "unit": "%*"},
      {"measurement": "Quick progressive spermatozoa after ingestion (on base 100)", "setting": "[1]", "value": 45, "unit": "%*"},
      {"measurement": "Slow spermatozoa after ingestion (on base 100)", "setting": "[1]", "value": 25, "unit": "%*"},
      {"measurement": "% increase of quick progressive spermatozoa vs before the treatment", "setting": "[1]; listed as sodium D-aspartate", "value": 28, "unit": "%"},
      {"measurement": "% increase of total spermatozoa vs before the treatment", "setting": "[1]; listed as sodium D-aspartate", "value": 27, "unit": "%"},
      {"measurement": "% increment of number of spermatozoa vs before the treatment", "setting": "[2]", "value": 19.3, "unit": "%"},
      {"measurement": "% increment of quick progressive spermatozoa vs before the treatment", "setting": "[2]", "value": 37, "unit": "%"},
      {"measurement": "Immobile spermatozoa after ingestion (on 100 base)", "setting": "[2]", "value": 18, "unit": "%*"},
      {"measurement": "Quick progressive spermatozoa after ingestion (on 100 base)", "setting": "[2]", "value": 55, "unit": "%*"},
      {"measurement": "Slow spermatozoa after ingestion (on 100 base)", "setting": "[2]", "value": 27, "unit": "%*"},
      {"measurement": "% increment of quick progressive spermatozoa vs before the treatment", "setting": "[2]; listed as D-aspartate", "value": 37, "unit": "%"},
      {"measurement": "Quick progressive spermatozoa after ingestion (on 100 base)", "setting": "[2]; listed as D-aspartate", "value": 55, "unit": "%"},
      {"measurement": "% increment of number of spermatozoa vs before the treatment", "setting": "[2]; listed as sodium D-aspartate", "value": "19,3%"},
      {"measurement": "% increment of quick progressive spermatozoa vs before the treatment", "setting": "[2]; listed as sodium D-aspartate", "value": 37, "unit": "%"},
      {"measurement": "Quick progressive spermatozoa after ingestion (on 100 base)", "setting": "[2]; listed as sodium D-aspartate", "value": 55, "unit": "%"},
      {"measurement": "LH % increment vs before the treatment", "setting": "[3]; oral 3.12 g/day total", "value": "+25.6%"},
      {"measurement": "LH after ingestion", "setting": "[3]; oral 3.12 g/day total, average of 10", "value": 5.4, "unit": "mIU/ml serum"},
      {"measurement": "LH % increment vs before the treatment", "setting": "[3]; oral 3.12 g/day total, listed as sodium D-aspartate", "value": "25,6%"},
      {"measurement": "LH haematic value after ingestion", "setting": "[3]; oral 3.12 g/day", "value": 5.4, "unit": "mUI/ml"},
      {"measurement": "Testosterone % increment vs before the treatment", "setting": "[4]", "value": "+31.2%"},
      {"measurement": "Testosterone after ingestion", "setting": "[4]; average of 10", "value": 6.3, "unit": "ng/ml serum"},
      {"measurement": "Testosterone % increment vs before the treatment", "setting": "[4]; listed as sodium D-aspartate", "value": 31.2, "unit": "%"}
    ]},
    {"molecule": "N[C@H](CC(=O)O)C(=O)O", "note": "[D-aspartic acid]", "values": [
      {"measurement": "LH and testosterone values and spermatozoon number and motility", "setting": "[5]", "value": "induced an increase"},
      {"measurement": "Blood LH, growth hormone, prolactin and testosterone", "setting": "[6]", "value": "temporary increase"}
    ]},
    {"molecule": "N[C@@H](CC(=O)O)C(=O)O", "note": "[L-aspartic acid]", "values": [
      {"measurement": "LH haematic hormone before and after therapy", "setting": "[7]", "value": "unaltered"},
      {"measurement": "Testosterone haematic hormone before and after therapy", "setting": "[8]", "value": "unaltered"},
      {"measurement": "Immobile after treatment (on base 100)", "setting": "[9]", "value": 29, "unit": "%"},
      {"measurement": "Quick motility after treatment (on base 100)", "setting": "[9]", "value": 41, "unit": "%"},
      {"measurement": "Slow motility after treatment (on base 100)", "setting": "[9]", "value": 30, "unit": "%"},
      {"measurement": "Quick progressive motility of spermatozoa after treatment, individual subjects", "setting": "[10]; % progressive quick of 100 observed spermatozoa, one line per subject 1°-10°", "value": "25% and 19% and 35% (2×) and 18% and 40% and 45% and 22% and 27% and 39%"},
      {"measurement": "Average % increment of quick progressive motility", "setting": "[10]; average ± SD of 10 subjects", "value": "+35.6% ± 9.05"},
      {"measurement": "% increment of number of spermatozoa, individual subjects", "setting": "[10]; one line per subject 1°-10°", "value": "26% and 40% and 20% and 33% and 36% and 15% and 13% (2×) and 19% and 12%"},
      {"measurement": "% increment of quick progressive motility, individual subjects", "setting": "[10]; one line per subject 1°-10°", "value": "38% and 26% and 45% and 50% and 25% (2×) and 28% and 37% and 42% and 40%"},
      {"measurement": "Number of spermatozoa in seminal liquid after treatment, individual subjects", "setting": "[10]; one line per subject 1°-10° (20 days for the 80/20 mixture)", "value": "8 × 10^6 and 35 × 10^6 and 6 × 10^6 and 20 × 10^6 and 41 × 10^6 and 3 × 10^6 and 34 × 10^6 and 51 × 10^6 and 25 × 10^6 and 18 × 10^6"}
    ]}
  ]
}
